Measured values from ChEMBL document CHEMBL1201862, “PubChem BioAssay data set” (2004).
Calls of active or inactive are those of the source.

Assays:
[1] = target: T1, Microphthalmia-associated transcription factor (Homo sapiens, UniProt O75030); assay: TRPM1 promoter luciferase signal decrease, dose response, MITF inhibitor project, cell-based, SK-MEL-5, cherry-picked, set 3 (AID 493073); assay type: functional
T1 sequence (O75030 whole entry): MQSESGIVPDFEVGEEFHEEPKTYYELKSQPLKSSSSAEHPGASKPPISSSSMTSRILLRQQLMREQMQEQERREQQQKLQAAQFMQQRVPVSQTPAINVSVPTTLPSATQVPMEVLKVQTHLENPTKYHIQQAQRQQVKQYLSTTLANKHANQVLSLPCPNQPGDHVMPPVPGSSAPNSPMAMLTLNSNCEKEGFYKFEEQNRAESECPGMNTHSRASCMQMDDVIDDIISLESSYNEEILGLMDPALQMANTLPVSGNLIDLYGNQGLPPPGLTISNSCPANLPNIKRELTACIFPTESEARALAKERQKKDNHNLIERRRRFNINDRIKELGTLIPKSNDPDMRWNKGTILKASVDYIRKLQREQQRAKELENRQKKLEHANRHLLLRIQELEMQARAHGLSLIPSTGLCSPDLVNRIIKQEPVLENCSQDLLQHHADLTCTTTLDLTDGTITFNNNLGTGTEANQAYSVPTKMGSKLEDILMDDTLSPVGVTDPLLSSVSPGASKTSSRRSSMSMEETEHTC

Melanocortin receptor 4 = Melanocortin receptor 4 (Homo sapiens, UniProt P32245); assay type: functional, cell-based;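 note: Cell-based assay with luminescence read-out, confirmatory dose-response testing for agonist activity of biased ligands at MC4R; human U2OS cells with tagged receptor and beta-arrestin; potency of agonists that increase receptor coupling to beta-arrestin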
Sequence of Melanocortin receptor 4 (P32245 whole entry): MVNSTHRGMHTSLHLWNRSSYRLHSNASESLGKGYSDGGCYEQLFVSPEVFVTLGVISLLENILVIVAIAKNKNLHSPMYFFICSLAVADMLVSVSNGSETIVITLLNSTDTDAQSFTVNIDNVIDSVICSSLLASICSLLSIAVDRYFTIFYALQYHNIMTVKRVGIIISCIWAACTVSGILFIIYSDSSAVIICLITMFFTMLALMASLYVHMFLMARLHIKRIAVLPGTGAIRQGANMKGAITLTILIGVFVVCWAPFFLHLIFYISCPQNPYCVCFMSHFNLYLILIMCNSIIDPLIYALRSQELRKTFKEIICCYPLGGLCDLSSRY

[2] = target: DNA damage-inducible transcript 3 protein (Mus musculus, UniProt P35639); assay type: functional, Cricetulus griseus
Sequence of DNA damage-inducible transcript 3 protein (P35639 whole entry): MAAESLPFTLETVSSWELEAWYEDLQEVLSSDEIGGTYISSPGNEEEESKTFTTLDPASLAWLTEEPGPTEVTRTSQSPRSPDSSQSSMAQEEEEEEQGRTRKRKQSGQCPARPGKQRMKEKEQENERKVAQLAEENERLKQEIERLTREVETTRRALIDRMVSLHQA

[3] = cytotoxicity toward NIH3T3 fibroblasts, dose response, counter-screen, cell-based, ATP luminescence, mouse fibroblasts (AID 2010); assay type: functional;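 note: cells exposed to compound for about 90 hours before reading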
HEK293 [4] = assay: cells; assay type: functional, cell-based; settings: Homo sapiens
HEK293 [5] = assay: cells; assay type: functional, cell-based; settings: Homo sapiens; remark: listed apart in the source
HEK293 [6] = assay: NOD1 signaling inhibitors, primary screen, cell-based, luminescence, uHTS (AID 1578); assay type: functional; settings: Homo sapiens
Tumor necrosis factor = Tumor necrosis factor (Homo sapiens, UniProt P01375); assay: TNFa-triggered NF-kB activation inhibitors, SAR follow-up, cell-based, revised (AID 2337); assay type: functional
Sequence of Tumor necrosis factor (P01375 whole entry): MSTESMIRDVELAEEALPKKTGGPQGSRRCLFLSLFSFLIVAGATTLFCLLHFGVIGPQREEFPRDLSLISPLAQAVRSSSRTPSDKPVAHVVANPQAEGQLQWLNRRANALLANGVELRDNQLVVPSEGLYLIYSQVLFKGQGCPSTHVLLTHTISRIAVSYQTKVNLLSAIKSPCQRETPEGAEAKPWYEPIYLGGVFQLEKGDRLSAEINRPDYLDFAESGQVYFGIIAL

Interleukin-8 [7] = target: T2, Interleukin-8 (Homo sapiens, UniProt P10145); assay: SAR analysis of Tumor necrosis factor alpha (TNF-alpha) induced IL-8 secretion in MCF-7/NOD1 cells - Set 2. [Related pubchem assays (depositor defined):AID1575, AID2250, AID2260]; assay type: functional, cell-based
T2 sequence (P10145 whole entry): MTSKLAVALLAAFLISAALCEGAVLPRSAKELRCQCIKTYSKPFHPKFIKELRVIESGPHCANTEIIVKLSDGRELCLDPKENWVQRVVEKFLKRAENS

[8] = inhibitors of intracellular T. cruzi replication, confirmation, NIH3T3 host cells, beta-gal luminescence (AID 2044); assay type: functional, cell-based;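 note: intracellular parasites grown in NIH/3T3 mouse fibroblasts as host cells; luminescent beta-galactosidase reporter signal from transgenic T. cruzi replicating inside host cells; inhibitors lower the luminescence signal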
Interleukin-8 [9] = target: T2, Interleukin-8; assay: SAR analysis of GM-Tri-DAP induced IL-8 secretion in MCF-7/NOD1 cells - Set 2. [Related pubchem assays (depositor defined):AID1575, AID1578, AID2333]; assay type: functional, cell-based
HEK293 [10] = assay: cells; assay type: functional, cell-based; settings: Homo sapiens; remark: listed apart in the source
HEK293 [11] = assay: cells; settings: Homo sapiens
HEK293 [12] = assay: SAR analysis of compounds that are cytotoxic to HEK293 - Set 2. [Related pubchem assays (depositor defined):AID1575, AID1578, AID1849, AID2001, AID2333, AID2334, AID2335, AID2337, AID2800]; assay type: functional, cell-based; settings: Homo sapiens
[13] = target: T3, Nucleotide-binding oligomerization domain-containing protein 2 (Homo sapiens, UniProt Q9HC29); assay: NOD2 inhibitors, SAR follow-up, set 2 (AID 2475); assay type: functional
T3 sequence (Q9HC29 whole entry, the tested form may be a part): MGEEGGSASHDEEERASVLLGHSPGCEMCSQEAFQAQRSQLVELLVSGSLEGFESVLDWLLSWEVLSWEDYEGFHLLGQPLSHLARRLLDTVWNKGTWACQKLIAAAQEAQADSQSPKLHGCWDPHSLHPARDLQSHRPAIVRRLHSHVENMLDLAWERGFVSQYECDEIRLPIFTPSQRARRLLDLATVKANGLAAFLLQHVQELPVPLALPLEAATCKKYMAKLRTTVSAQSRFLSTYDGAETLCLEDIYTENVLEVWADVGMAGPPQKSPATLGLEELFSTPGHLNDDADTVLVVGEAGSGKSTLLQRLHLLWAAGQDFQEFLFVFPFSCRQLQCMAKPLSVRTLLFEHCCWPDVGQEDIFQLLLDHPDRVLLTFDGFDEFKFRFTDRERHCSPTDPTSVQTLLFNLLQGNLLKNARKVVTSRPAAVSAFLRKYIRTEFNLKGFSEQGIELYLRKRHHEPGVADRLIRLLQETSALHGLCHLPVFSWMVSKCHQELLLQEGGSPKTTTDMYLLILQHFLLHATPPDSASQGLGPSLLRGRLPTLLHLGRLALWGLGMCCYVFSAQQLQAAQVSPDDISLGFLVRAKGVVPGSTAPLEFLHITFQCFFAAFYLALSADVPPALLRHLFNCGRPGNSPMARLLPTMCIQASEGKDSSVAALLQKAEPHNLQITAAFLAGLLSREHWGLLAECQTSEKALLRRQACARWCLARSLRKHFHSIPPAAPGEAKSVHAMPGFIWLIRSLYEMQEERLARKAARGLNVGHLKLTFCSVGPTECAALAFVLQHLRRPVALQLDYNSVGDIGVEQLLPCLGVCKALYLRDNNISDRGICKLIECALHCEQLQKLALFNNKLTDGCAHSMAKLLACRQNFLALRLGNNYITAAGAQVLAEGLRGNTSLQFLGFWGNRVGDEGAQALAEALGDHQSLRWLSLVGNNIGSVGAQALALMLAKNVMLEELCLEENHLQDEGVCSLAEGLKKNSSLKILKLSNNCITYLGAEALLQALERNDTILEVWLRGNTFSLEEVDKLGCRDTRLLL

[14] = target: T4, Nucleotide-binding oligomerization domain-containing protein 1 (Homo sapiens, UniProt Q9Y239); assay: NOD1 signaling inhibitors, SAR follow-up, revised (AID 2333); assay type: functional
T4 sequence (Q9Y239 whole entry): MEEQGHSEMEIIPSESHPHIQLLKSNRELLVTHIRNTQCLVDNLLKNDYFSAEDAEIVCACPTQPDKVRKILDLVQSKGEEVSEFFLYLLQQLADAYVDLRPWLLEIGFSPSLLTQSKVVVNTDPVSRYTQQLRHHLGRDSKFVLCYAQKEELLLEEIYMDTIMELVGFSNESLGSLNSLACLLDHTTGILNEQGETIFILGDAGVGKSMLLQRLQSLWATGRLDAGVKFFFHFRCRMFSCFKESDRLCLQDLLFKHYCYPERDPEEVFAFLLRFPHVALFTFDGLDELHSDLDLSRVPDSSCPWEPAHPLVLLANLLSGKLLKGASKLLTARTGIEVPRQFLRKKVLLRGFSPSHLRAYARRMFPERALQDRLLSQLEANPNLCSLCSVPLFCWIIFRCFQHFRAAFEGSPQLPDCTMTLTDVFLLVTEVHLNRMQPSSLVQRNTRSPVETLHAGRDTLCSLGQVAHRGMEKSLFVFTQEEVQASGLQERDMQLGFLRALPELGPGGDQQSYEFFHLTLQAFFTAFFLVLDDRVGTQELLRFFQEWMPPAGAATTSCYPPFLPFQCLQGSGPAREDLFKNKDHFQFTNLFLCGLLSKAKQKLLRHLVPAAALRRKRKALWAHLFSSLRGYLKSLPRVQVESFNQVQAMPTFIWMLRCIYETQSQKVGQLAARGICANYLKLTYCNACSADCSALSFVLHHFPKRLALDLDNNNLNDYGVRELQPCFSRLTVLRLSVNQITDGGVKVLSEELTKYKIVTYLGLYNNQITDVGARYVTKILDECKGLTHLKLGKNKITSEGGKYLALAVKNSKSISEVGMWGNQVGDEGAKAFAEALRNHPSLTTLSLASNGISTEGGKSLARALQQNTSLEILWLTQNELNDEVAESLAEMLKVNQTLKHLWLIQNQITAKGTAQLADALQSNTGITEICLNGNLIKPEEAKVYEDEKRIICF

[15] = target: T3, Nucleotide-binding oligomerization domain-containing protein 2; assay: PubChem AID 2334; assay type: functional
[16] = target: T4, Nucleotide-binding oligomerization domain-containing protein 1; assay: SAR analysis of compounds that inhibit NOD1 - Set 2. [Related pubchem assays (depositor defined):AID1566, AID1575, AID1578, AID1849, AID1852, AID2333, AID2335, AID2798]; assay type: functional
[17] = target: T3, Nucleotide-binding oligomerization domain-containing protein 2; assay: NOD2 signaling inhibitors, cell-based, luminescence, uHTS, HEK293 (AID 1566); assay type: functional
HEK293 [18] = assay: NOD2 signaling inhibitors in MDP-stimulated cells, cell-based, uHTS, luminescence (AID 2001); assay type: functional; settings: Homo sapiens
J774.A1 = assay: Confirmation of image-based Screening Assay for Inhibitors of Phagocytosis. [Related pubchem assays (depositor defined):AID1029, AID1643]; assay type: functional, cell-based; settings: Mus musculus
fMet-Leu-Phe receptor = fMet-Leu-Phe receptor (Homo sapiens, UniProt P21462); assay: FPR ligands, dose response (AID 519); assay type: functional
Beta-galactosidase = Beta-galactosidase (Escherichia coli, UniProt Q8VNN2); assay: beta-galactosidase enzyme inhibitors and activators, dose response, artefact control for CCR6 antagonist project, biochemical, E. coli enzyme, set 3 (AID 504712); assay type: functional
Streptococcus = assay: Group A Streptococcus viability loss, dose response, counter-screen for streptokinase expression inhibitor project, luminescence, BacTiterGlo (AID 1915); assay type: functional, organism-based;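 note: potency for reduction of bacterial viability or growth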
[19] = target: T5, Probable nicotinate-nucleotide adenylyltransferase (Staphylococcus aureus (strain N315), UniProt P65502); assay type: functional, Staphylococcus aureus subsp. aureus N315; settings: read-out: IC50_Mean;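 for IC50 Mean: confirmatory dose-response retesting of NadD inhibitor hits first found in an ultra-high-throughput screen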
T5 sequence (P65502 whole entry, the tested form may be a part): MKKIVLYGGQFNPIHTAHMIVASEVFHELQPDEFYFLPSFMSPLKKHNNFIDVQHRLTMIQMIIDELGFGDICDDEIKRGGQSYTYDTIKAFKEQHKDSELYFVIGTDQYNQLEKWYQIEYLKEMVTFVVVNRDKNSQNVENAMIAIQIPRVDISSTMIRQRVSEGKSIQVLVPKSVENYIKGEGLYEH

Fatty acid synthase [20] = target: T6, Fatty acid synthase (Homo sapiens, UniProt P49327); assay: FAS thioesterase domain inhibitors, dose response, biochemical, kinetic fluorescence intensity (AID 624326); assay type: functional;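 note: rate of fluorescence rise from hydrolysis of a fluorogenic O-methyl fluorescein ester substrate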
T6 sequence (P49327 whole entry, the tested form may be a part): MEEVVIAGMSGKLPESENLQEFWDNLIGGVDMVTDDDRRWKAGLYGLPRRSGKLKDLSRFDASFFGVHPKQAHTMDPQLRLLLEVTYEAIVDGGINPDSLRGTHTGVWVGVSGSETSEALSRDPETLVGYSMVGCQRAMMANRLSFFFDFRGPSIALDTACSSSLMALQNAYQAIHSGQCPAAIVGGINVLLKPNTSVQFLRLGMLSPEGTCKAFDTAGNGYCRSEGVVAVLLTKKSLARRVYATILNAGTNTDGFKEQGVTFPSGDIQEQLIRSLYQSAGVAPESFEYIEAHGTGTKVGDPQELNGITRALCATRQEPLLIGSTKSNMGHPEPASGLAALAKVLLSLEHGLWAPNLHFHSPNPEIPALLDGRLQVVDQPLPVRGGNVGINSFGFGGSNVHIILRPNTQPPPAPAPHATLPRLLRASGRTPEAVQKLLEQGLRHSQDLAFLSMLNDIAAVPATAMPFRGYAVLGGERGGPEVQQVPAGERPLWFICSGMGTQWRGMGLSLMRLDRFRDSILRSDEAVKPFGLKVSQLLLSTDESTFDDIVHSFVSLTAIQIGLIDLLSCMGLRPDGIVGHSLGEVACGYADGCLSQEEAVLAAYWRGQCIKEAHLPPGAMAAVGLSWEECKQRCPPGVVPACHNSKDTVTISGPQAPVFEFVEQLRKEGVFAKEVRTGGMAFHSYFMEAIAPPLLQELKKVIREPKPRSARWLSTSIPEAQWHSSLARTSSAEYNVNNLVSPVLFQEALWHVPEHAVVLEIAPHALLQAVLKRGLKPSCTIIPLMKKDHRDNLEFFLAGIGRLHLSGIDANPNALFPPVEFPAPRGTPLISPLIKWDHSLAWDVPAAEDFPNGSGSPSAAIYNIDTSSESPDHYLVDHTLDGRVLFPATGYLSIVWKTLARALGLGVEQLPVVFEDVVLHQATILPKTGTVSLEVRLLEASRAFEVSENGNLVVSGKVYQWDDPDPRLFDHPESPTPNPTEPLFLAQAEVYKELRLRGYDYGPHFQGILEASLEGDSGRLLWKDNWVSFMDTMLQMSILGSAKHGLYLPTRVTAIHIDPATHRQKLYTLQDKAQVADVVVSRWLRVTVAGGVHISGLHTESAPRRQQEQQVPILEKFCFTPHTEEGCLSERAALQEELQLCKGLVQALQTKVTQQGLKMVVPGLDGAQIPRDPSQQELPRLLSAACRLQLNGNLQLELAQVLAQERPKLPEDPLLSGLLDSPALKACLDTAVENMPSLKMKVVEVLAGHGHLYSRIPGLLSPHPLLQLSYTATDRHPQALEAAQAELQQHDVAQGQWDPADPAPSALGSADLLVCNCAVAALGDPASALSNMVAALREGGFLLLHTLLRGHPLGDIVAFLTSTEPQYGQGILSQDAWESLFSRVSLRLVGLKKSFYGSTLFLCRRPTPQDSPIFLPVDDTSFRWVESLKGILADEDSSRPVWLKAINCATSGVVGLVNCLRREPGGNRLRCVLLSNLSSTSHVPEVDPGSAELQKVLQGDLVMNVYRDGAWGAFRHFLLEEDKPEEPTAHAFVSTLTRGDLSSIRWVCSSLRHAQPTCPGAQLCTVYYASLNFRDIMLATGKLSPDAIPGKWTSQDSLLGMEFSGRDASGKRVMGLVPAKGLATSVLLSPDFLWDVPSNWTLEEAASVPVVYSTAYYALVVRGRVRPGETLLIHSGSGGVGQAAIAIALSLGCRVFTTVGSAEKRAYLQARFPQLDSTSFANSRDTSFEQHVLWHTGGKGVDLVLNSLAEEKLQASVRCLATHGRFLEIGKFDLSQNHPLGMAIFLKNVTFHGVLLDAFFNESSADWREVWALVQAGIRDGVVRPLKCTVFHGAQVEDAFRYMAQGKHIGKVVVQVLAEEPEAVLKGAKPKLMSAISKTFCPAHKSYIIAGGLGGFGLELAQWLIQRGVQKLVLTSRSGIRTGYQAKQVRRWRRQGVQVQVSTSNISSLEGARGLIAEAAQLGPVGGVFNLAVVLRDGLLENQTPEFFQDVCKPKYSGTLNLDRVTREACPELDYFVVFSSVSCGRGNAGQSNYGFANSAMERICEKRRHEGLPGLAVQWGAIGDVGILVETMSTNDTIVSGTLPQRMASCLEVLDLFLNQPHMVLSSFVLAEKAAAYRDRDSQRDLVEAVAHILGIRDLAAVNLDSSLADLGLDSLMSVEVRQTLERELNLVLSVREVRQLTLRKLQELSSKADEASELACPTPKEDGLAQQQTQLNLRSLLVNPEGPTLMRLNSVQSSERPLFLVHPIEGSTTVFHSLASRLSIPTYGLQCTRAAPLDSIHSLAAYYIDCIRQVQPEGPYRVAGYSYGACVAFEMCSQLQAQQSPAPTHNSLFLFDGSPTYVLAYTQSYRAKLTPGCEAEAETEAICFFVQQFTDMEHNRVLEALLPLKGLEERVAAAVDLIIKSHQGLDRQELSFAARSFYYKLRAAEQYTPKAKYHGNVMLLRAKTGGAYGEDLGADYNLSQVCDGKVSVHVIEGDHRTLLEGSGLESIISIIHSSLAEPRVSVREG

[21] = system: Streptococcus sp. 'group A'; assay: growth inhibition of control SK(-) GAS strain, dose response, counter-screen for streptokinase expression inhibitor project, luminescence, kanamycin, BacTiterGlo, confirmation (AID 1900); assay type: functional, organism-based
Genome polyprotein = Genome polyprotein (dengue virus type 2, UniProt P29990); assay: Dengue-2 NS5 methyltransferase inhibitors, primary screen, biochemical, confirmation dose response (AID 588689); assay type: functional
Vero = Vero cell cytotoxicity, cytotoxicity control for flavivirus capping enzyme inhibitors (AID 588742); assay type: functional; settings: Chlorocebus sabaeus
Fatty acid synthase [22] = target: T6, Fatty acid synthase; assay: FAS thioesterase domain inhibitors, dose response, biochemical, endpoint fluorescence intensity, uHTS hits (AID 624327); assay type: functional;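 note: fluorescence from hydrolysis of an O-methyl fluorescein acyl ester substrate by the enzyme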
[23] = target: T5, Probable nicotinate-nucleotide adenylyltransferase; assay type: functional, Staphylococcus aureus subsp. aureus N315
[24] = target: T7, Protein phosphatase methylesterase 1 (Homo sapiens, UniProt Q9Y570); assay: PME-1 inhibitor potency by in-gel ABPP, dose response, selectivity assay for PME-1 inhibitor project, cell lysate, mouse brain cytosol, FP-rhodamine, panel member PME-1 Assay Panel member description: Inhibition of endogenously expressed PME-1 (AID 2366)
T7 sequence (Q9Y570 whole entry): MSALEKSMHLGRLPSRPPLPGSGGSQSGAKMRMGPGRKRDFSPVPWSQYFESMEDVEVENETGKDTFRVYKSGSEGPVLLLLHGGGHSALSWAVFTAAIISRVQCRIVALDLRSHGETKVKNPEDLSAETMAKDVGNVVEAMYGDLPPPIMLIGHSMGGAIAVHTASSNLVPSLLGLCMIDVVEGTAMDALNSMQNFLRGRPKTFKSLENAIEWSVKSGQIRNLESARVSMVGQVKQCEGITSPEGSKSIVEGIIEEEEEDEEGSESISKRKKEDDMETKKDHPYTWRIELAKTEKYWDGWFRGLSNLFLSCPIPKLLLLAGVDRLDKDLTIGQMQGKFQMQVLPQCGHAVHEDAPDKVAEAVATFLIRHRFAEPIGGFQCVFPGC

[25] = target: T7, Protein phosphatase methylesterase 1; assay: Late stage results from the probe development effort to identify inhibitors of the protein methylesterase PME-1: Gel-based Activity-Based Protein Profiling (ABPP) IC50: Purified enzyme.; assay type: functional
cells [26] = assay type: functional, cell-based; settings: PPC-1
MDA-MB-435 = assay: cells; assay type: functional, cell-based; settings: Homo sapiens
[27] = target: Voltage-gated N-type calcium channel alpha-1B subunit/Amyloid beta A4 precursor protein-binding family A member 1 (Homo sapiens, UniProt Q00975+Q02410); assay: disruptors of Mint-PDZ/N-type channel peptide interaction – biochemical, HTRF, SAR follow-up (AID 2489); assay type: functional
Hexokinase = Hexokinase (Trypanosoma brucei, UniProt Q38C41); assay: Confirmation assay for inhibitors of Trypanosoma brucei hexokinase 1-Analogue-first series. [Related pubchem assays (depositor defined):AID1430, AID1632, AID2516, AID2560, AID2579, AID2600, AID449725, AID492951]; assay type: functional
[28] = THP-1 cell cytotoxicity, dose response, cytotoxicity control for non-replicating M. tuberculosis project (AID 489025); assay type: functional
cells [29] = assay type: functional
[30] = Vero E6 cell cytotoxicity, dose response, cytotoxicity control for non-replicating M. tuberculosis project, secondary assay (AID 492998); assay type: functional, VeroE6; settings: Vero C1008
[31] = target: NACHT, LRR and PYD domains-containing protein 3 (Homo sapiens, UniProt Q96P20); assay: NALP3 inhibitors in yeast, dose response, luminescent (AID 488799); assay type: functional
INS1 = assay: beta cell apoptosis inhibitors, cytokine rescue, dose response, luminescence, retest (AID 449756); assay type: functional, cell-based; settings: Rattus norvegicus;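 note: cell death triggered by IL-1 beta plus TNF-alpha plus IFN-gamma mixture; protective hits raise ATP signal compared with cytokine alone wells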

COc1cc(NC(=O)COc2ccccc2[N+](=O)[O-])ccc1NC(=O)c1cccs1
AC50 [1]: 10.1 µM (active)
EC50 (Melanocortin receptor 4): > 89.2 µM (inactive)
Absolute IC50 (CHOP) [2]: 10 µM

O=C(Nc1nc2ccccc2n1Cc1ccc(Cl)cc1)c1ccco1
EC50 [3]: > 60 µM (not active)
IC50 (HEK293 [4]): > 20 µM (inactive)
IC50 (HEK293 [5]): > 20 µM (inactive)
EC50 (HEK293 [6]): > 20 µM (inactive)
IC50 (Tumor necrosis factor): > 20 µM (inactive)
IC50 (Interleukin-8 [7]): > 25 µM (inactive)
EC50 [8]: 1.72 µM (active)
IC50 (Interleukin-8 [9]): > 25 µM (inactive)
IC50 (HEK293 [10]): > 20 µM (inactive)
IC50 (HEK293 [11]): > 20 µM (inactive)
IC50 (HEK293 [12]): > 20 µM (inactive)
IC50 [13]: 3.63 µM (active)
IC50 [14]: > 20 µM (inactive)
IC50 [15]: > 20 µM (inactive)
IC50 [16]: 3.47 µM (active)
EC50 [17]: > 20 µM (inactive)
IC50 (HEK293 [18]): 1.96 µM (active)

Cn1cc(C=Nn2cnc3scc(-c4ccc(Cl)cc4)c3c2=O)c2ccccc21
IC50 (J774.A1): < 0.05 µM (inactive)

Cc1nn2c(O)cc(-c3ccc([N+](=O)[O-])cc3)nc2c1-c1ccccc1
Ki (fMet-Leu-Phe receptor): > 66.7 µM (inactive)
IC50 (Beta-galactosidase): > 66.6 µM (inactive)
EC50 (Streptococcus): 1.44 µM (active)
IC50 [19]: 30.2 µM (active)
IC50 (Fatty acid synthase [20]): 6.29 µM (active)
EC50 [21]: 0.662 µM (active)
IC50 (Genome polyprotein): 36.5 µM (active)
CC50 (Vero): 29.6 µM (active)
IC50 (Fatty acid synthase [22]): 11.2 µM (active)
IC50 [23]: 8.02 µM (active)

CS(=O)(=O)C(=Cc1cccn1S(=O)(=O)c1ccccc1)S(C)(=O)=O
IC50 [24]: > 20 µM (inactive)
IC50 [25]: > 20 µM (not active)

CSc1nc(-c2ccccc2)nc(-c2ccccc2OC(C)=O)n1
IC50 (cells [26]): > 10 µM (inactive)
IC50 (MDA-MB-435): > 10 µM (inactive)

CCOC(=O)N1CCN(C(=O)c2ccc3nc(-c4ccco4)c(-c4ccco4)nc3c2)CC1
IC50 [27]: 42.5 µM (active)

O=C1CCN(C(=O)Nc2cc(Cl)ccc2C(=O)O)CC1
IC50 (Hexokinase): > 25 µM (inactive)

O=C(N/N=C\c1ccc(Cl)s1)C1COc2ccccc2O1 (centres undefined)
CC50 [28]: 16.3 µM (active)
IC50 (cells [29]): 5.63 µM (active)
CC50 [30]: 19.4 µM (active)

CC(=O)Oc1c(I)cc(I)cc1C(=O)Nc1ccc(Cl)cc1 [CLIOXANIDE]
EC50 (Streptococcus): 0.76 µM (active)
EC50 [21]: 0.377 µM (active)
IC50 [31]: 1.61 µM (active)
AC50 (INS1): 12.5 µM (active)
